Data reported in patent US8604217B2, “Compound, a process for its preparation, a pharmaceutical composition, use of a compound, a method for modulating or regulating serine/threonine kinases and a serine/threonine kinases modulating agent” (Selvita S.A., priority 2009, dated 2013).

Experiments:
Assay in all cases: KinaseProfiler kinase panel
[1] = target: JAK2(h) (Homo sapiens (Human), UniProt O60674); assay type: biochemical
[2] = target: BrSK2(h) (Homo sapiens (Human), UniProt Q8IWQ3); assay type: biochemical
[3] = target: CaMKIV(h) (Homo sapiens (Human), UniProt Q16566); assay type: biochemical
[4] = target: FGFR1(h) (Homo sapiens (Human), UniProt P11362); assay type: biochemical
[5] = target: IR(h) (Homo sapiens (Human), UniProt P06213); assay type: biochemical
[6] = target: Rsk1(h) (Homo sapiens (Human), UniProt Q15418); assay type: biochemical
[7] = target: Haspin(h) (Homo sapiens (Human), UniProt Q8TF76); assay type: biochemical
[8] = target: Met(D1246N)(h) (Homo sapiens (Human), UniProt P08581, D1246N); assay type: biochemical
[9] = target: GRK6(h) (Homo sapiens (Human), UniProt P43250); assay type: biochemical
[10] = target: Syk(h) (Homo sapiens (Human), UniProt P43405); assay type: biochemical
[11] = target: SAPK3(h) (Homo sapiens (Human), UniProt P53778); assay type: biochemical
[12] = target: DRAK1(h) (Homo sapiens (Human), UniProt Q9UEE5); assay type: biochemical
[13] = target: PIM-3(h) (Homo sapiens (Human), UniProt Q86V86); assay type: biochemical
[14] = target: EGFR(T790M)(h) (Homo sapiens (Human), UniProt P00533, T790M); assay type: biochemical
[15] = target: EphB4(h) (Homo sapiens (Human), UniProt P54760); assay type: biochemical
[16] = target: SRPK2(h) (Homo sapiens (Human), UniProt P78362); assay type: biochemical
[17] = target: EGFR(T790M, L858R)(h) (Homo sapiens (Human), UniProt P00533, L858R/T790M); assay type: biochemical
[18] = target: CDK1/cyclinB(h) (Homo sapiens (Human), UniProt P06493); assay type: biochemical
[19] = target: EGFR(L861Q)(h) (Homo sapiens (Human), UniProt P00533, L861Q); assay type: biochemical
[20] = target: DYRK2(h) (Homo sapiens (Human), UniProt Q92630); assay type: biochemical
[21] = target: PKA(h) (Homo sapiens (Human), UniProt P17612); assay type: biochemical
[22] = system: MLCK(h); assay type: biochemical, human; details: 1 μM
[23] = target: Flt3(D835Y)(h) (Homo sapiens (Human), UniProt P36888, D835Y); assay type: biochemical
[24] = target: PDGFRα(h) (Homo sapiens (Human), UniProt P16234); assay type: biochemical
[25] = target: Mnk2(h) (Homo sapiens (Human), UniProt Q9HBH9); assay type: biochemical
Chain of Mnk2(h) (Q9HBH9 whole entry): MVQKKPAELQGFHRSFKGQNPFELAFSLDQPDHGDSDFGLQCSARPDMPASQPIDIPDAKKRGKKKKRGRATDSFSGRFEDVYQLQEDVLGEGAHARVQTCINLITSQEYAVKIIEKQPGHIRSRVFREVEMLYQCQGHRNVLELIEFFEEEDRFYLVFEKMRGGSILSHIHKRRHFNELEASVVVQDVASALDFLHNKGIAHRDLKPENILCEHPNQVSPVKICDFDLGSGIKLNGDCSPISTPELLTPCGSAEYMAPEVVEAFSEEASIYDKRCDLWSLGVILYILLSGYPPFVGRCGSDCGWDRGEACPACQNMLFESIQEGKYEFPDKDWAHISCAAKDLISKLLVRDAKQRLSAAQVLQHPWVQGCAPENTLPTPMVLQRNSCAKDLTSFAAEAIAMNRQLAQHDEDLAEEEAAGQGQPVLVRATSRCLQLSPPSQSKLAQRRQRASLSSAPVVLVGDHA

[26] = target: FGFR2(N549H)(h) (Homo sapiens (Human), UniProt P21802, N549H); assay type: biochemical
[27] = target: KDR(h) (Homo sapiens (Human), UniProt P35968); assay type: biochemical
[28] = target: PAK3(h) (Homo sapiens (Human), UniProt O75914); assay type: biochemical
[29] = target: Flt4(h) (Homo sapiens (Human), UniProt P35916); assay type: biochemical
[30] = target: WNK3(h) (Homo sapiens (Human), UniProt Q9BYP7); assay type: biochemical
Chain of WNK3(h) (Q9BYP7 whole entry): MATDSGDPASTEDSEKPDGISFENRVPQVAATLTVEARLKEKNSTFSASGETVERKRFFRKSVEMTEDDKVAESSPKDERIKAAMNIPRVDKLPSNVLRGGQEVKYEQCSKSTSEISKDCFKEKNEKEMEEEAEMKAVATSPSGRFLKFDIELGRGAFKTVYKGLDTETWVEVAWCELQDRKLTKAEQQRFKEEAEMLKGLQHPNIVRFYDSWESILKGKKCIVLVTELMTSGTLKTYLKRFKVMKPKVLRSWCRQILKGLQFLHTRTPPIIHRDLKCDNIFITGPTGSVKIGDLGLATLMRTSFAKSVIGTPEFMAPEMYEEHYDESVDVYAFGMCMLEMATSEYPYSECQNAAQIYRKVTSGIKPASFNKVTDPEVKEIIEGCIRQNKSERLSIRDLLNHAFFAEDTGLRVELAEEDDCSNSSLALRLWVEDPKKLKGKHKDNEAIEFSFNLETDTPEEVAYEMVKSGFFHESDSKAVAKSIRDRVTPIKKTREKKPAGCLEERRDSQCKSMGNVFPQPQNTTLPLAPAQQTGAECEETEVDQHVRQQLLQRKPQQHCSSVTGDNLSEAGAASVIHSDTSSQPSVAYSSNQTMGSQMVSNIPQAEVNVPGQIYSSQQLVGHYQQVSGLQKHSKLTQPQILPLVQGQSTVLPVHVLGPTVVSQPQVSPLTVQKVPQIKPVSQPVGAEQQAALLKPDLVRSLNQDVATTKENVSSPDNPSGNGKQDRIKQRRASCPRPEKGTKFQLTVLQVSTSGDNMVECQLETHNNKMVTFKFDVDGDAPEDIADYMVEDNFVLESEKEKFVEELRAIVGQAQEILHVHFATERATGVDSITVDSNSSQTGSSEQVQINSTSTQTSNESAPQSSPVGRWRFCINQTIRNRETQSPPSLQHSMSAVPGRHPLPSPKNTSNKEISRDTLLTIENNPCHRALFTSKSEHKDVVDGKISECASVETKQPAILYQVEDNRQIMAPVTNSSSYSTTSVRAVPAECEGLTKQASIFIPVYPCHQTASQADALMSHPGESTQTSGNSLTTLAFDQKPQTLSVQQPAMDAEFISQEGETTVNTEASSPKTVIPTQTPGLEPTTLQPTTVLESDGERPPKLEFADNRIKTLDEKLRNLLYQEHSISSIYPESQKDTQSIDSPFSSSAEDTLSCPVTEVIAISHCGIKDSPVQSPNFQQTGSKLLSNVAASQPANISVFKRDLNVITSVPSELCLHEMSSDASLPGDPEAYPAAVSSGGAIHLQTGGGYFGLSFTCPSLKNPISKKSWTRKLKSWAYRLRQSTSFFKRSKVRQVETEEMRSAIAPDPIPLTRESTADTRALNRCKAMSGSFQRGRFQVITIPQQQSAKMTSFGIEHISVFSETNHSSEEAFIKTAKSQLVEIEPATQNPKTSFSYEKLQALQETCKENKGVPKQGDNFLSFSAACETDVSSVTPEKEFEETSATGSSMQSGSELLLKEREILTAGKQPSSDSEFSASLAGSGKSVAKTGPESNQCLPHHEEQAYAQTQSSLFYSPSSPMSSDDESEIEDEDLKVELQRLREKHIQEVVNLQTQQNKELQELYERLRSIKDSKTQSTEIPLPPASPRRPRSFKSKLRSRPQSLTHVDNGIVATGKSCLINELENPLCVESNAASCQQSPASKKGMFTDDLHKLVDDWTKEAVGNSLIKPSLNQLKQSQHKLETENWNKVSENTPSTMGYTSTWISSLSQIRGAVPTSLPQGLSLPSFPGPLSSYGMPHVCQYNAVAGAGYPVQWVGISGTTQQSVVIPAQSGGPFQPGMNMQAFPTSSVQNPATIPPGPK

[31] = target: MKK6(h) (Homo sapiens (Human), UniProt P52564); assay type: biochemical
[32] = target: CDK5/p35(h) (Homo sapiens (Human), UniProt Q00535); assay type: biochemical
Chain of CDK5/p35(h) (Q00535 whole entry): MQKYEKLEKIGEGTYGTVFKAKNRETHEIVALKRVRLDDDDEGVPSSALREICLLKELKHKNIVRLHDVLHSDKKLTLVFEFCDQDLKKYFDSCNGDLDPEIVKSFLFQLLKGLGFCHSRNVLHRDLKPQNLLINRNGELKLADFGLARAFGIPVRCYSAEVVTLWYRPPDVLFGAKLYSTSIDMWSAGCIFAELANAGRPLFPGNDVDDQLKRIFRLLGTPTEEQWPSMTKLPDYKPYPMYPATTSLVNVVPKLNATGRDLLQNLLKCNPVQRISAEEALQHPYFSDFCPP
Chain of CDK5/p35(h) (Q15078 whole entry partner): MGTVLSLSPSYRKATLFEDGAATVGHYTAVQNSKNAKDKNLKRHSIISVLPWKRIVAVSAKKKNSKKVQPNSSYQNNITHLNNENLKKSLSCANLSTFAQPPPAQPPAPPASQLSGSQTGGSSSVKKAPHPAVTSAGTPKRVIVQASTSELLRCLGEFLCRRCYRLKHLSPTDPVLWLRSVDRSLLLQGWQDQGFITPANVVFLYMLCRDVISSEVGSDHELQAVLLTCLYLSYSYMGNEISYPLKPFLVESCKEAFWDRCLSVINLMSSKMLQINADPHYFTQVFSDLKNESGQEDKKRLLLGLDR

[33] = target: PKCδ(h) (Homo sapiens (Human), UniProt Q05655); assay type: biochemical
[34] = target: CaMKIIδ(h) (Homo sapiens (Human), UniProt Q13557); assay type: biochemical
[35] = target: EphB2(h) (Homo sapiens (Human), UniProt P29323); assay type: biochemical
[36] = target: SAPK2a(T106M)(h) (Homo sapiens (Human), UniProt Q16539, T106M); assay type: biochemical
Chain of SAPK2a(T106M)(h) (Q16539 whole entry T106M): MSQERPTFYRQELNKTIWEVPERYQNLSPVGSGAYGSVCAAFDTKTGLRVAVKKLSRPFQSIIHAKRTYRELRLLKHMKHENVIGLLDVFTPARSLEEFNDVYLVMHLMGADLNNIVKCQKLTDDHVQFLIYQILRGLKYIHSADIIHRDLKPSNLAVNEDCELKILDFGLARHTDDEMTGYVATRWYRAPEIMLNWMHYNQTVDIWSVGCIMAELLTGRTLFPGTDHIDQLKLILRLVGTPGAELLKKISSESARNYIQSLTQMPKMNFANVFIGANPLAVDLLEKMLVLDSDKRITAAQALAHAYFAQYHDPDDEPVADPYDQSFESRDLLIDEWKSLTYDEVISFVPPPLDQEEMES

[37] = target: SAPK2a(h) (Homo sapiens (Human), UniProt Q16539); assay type: biochemical
Chain of SAPK2a(h) (Q16539 whole entry): as the sequence (Q16539 whole entry T106M) above, with M106T counted along it

[38] = target: SGK2(h) (Homo sapiens (Human), UniProt Q9HBY8); assay type: biochemical
[39] = target: CHK2(h) (Homo sapiens (Human), UniProt O96017); assay type: biochemical
Chain of CHK2(h) (O96017 whole entry): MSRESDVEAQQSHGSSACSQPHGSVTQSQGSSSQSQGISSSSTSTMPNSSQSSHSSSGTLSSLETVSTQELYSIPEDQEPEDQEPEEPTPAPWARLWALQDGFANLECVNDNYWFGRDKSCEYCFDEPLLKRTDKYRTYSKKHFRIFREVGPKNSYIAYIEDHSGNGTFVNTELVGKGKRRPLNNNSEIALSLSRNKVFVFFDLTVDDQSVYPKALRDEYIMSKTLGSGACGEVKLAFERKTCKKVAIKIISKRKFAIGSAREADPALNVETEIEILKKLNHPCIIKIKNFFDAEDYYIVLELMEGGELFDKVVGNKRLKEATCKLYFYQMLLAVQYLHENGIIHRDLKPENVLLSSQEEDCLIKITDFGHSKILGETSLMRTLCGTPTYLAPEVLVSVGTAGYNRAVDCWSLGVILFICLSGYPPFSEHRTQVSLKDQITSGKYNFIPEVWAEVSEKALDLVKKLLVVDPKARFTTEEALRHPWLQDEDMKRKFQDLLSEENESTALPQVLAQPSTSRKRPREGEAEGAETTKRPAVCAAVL

Chain of JAK2(h) (O60674 whole entry): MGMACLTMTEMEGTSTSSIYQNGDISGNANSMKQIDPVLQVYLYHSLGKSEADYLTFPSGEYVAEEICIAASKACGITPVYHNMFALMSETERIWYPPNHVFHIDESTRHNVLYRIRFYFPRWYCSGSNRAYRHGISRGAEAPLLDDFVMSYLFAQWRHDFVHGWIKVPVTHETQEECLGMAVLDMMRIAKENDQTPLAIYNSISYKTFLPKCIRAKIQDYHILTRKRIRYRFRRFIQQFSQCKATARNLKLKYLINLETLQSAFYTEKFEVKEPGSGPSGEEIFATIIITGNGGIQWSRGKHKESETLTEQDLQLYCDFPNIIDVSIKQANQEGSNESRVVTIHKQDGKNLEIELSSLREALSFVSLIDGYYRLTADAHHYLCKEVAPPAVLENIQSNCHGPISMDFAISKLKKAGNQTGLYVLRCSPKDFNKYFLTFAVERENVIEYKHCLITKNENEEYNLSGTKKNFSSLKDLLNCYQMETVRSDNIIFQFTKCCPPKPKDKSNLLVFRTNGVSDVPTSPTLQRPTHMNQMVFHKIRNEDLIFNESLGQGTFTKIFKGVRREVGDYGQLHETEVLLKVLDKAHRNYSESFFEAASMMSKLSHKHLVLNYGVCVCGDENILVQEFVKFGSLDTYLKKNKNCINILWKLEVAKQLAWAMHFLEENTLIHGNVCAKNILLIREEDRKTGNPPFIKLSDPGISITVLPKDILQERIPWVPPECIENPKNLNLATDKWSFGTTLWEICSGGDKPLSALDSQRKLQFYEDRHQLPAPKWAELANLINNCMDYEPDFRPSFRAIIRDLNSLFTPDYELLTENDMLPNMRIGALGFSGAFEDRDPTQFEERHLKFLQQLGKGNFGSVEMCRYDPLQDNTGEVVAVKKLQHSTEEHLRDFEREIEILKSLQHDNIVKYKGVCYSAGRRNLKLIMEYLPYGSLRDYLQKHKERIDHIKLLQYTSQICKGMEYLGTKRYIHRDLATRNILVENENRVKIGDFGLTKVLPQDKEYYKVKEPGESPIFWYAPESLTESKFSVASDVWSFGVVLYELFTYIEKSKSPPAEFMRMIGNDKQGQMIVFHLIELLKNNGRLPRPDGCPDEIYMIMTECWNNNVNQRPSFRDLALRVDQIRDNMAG

With CCn1c(N2CCNCC2)nc2c(Br)c(Br)c(Br)c(Br)c21 [Compound 416, 4,5,6,7-tetrabromo-1-ethyl-2-(piperazin-1-yl)-1H-benzo[d]imidazole] the remaining activity at 1 µM [1] was 121%, the remaining activity at 1 µM [2] was 91% and the remaining activity at 1 µM [3] was 85%. The remaining activity at 1 µM [4] was 99%, the remaining activity at 1 µM [5] was 104% and the remaining activity at 1 µM [6] was 56%. For the same compound, the remaining activity at 1 µM [7] was 2%, the remaining activity at 1 µM [8] was 74% and the remaining activity at 1 µM [9] was 91%. It also gave a remaining activity at 1 µM [10] of 95%, a remaining activity at 1 µM [11] of 68% and a remaining activity at 1 µM [12] of 82%. It also gave a remaining activity at 1 µM [13] of 34%, a remaining activity at 1 µM [14] of 28% and a remaining activity at 1 µM [15] of 100%. For the same compound, the remaining activity at 1 µM [16] was 102%, the remaining activity at 1 µM [17] was 11% and the remaining activity at 1 µM [18] was 7%. The remaining activity at 1 µM [19] was 27%, the remaining activity at 1 µM [20] was 45% and the remaining activity at 1 µM [21] was 70%. The “% remaining activity” value [22] was 88%, the remaining activity at 1 µM [23] was 1% and the remaining activity at 1 µM [24] was 98%. It also gave a remaining activity at 1 µM [25] of 17%, a remaining activity at 1 µM [26] of 101% and a remaining activity at 1 µM [27] of 28%. The remaining activity at 1 µM [28] was 100%, the remaining activity at 1 µM [29] was 17% and the remaining activity at 1 µM [30] was 94%. The remaining activity at 1 µM [31] was 43%, the remaining activity at 1 µM [32] was 2% and the remaining activity at 1 µM [33] was 89%. The remaining activity at 1 µM [34] was 28%, the remaining activity at 1 µM [35] was 106% and the remaining activity at 1 µM [36] was 86%. For the same compound, the remaining activity at 1 µM [37] was 99%, the remaining activity at 1 µM [38] was 79% and the remaining activity at 1 µM [39] was 76%.
